{
  "source": "patent US20040019101A1",
  "about": "“Methods of treating gastrointestinary and genitourinary pain disorders” (priority 2002, published 2004)",
  "origin": "cited, not measured here",
  "key": {"[1]": {"system": "monoamine neurotransmitter uptake"}, "[2]": {"system": "irritable bowel syndrome", "conditions": "in vivo"}, "[3]": {"system": "orocecal transit", "conditions": "healthy subjects or IBS patients"}, "[4]": {"system": "adrenergic receptors", "conditions": "in vitro"}, "[5]": {"system": "dopamine reuptake", "conditions": "compared with serotonin and norepinephrine uptake"}, "[6]": {"system": "histaminergic receptors", "conditions": "in vitro"}, "[7]": {"system": "monoamine oxidase"}, "[8]": {"system": "norepinephrine uptake"}},
  "data": [
    {"smiles": "CN(C)CC(c1ccc(O)cc1)C1(O)CCCCC1", "note": "(centres unmarked) [O-desmethyl venlafaxine, 1-[(2-dimethylamino)-1-(4-hydoxyphenyl)ethyl]cyclohexanol]", "values": [
      {"measurement": "inhibition of monoamine neurotransmitter uptake", "setting": "[1]", "value": "potent inhibitors"}
    ]},
    {"smiles": "CN(C)CCC=C1c2ccccc2CCc2ccccc21", "note": "[amytriptiline]", "values": [
      {"measurement": "efficacy in treatment of irritable bowel syndrome", "setting": "[2]", "value": "efficacious"}
    ]},
    {"smiles": "CN(C)CCC=C1c2ccccc2COc2ccccc21", "note": "[doxepin]", "values": [
      {"measurement": "efficacy in treatment of irritable bowel syndrome", "setting": "[2]", "value": "efficacious"}
    ]},
    {"smiles": "CN(C)CCCN1c2ccccc2CCc2ccccc21", "note": "[imipramine]", "values": [
      {"measurement": "effect on orocecal transit", "setting": "[3]", "value": "prolong orocecal transit"},
      {"measurement": "efficacy in treatment of irritable bowel syndrome", "setting": "[2]", "value": "efficacious"}
    ]},
    {"smiles": "COc1ccc(C(CN(C)C)C2(O)CCCCC2)cc1", "note": "(centres unmarked) [venlafaxine, 1-[2-(dimethylamino)-1-(4-methoxyphenyl)ethyl] cyclohexanol]", "values": [
      {"measurement": "inhibition of monoamine neurotransmitter uptake", "setting": "[1]", "value": "potent inhibitors"},
      {"measurement": "affinity for adrenergic receptors", "setting": "[4]", "value": "virtually no affinity"},
      {"measurement": "inhibition of dopamine reuptake", "setting": "[5]", "value": "To a lesser degree"},
      {"measurement": "affinity for histaminergic receptors", "setting": "[6]", "value": "virtually no affinity"},
      {"measurement": "inhibitory activity on monoamine oxidase", "setting": "[7]", "value": "no inhibitory activity"},
      {"measurement": "inhibition of norepinephrine uptake", "setting": "[8]", "value": "potent inhibition"}
    ]}
  ]
}
